The text below walks through data of a melting point compilation (Tetko et al.; mined from patent text by program, amines drawn as free bases though some values may be those of a salt).

The compound `CCOC(=O)c1cc(Br)cc(C(=O)OCC)n1` came in with a melting point of 95 to 96 °C.
For the compound `O=C(O)Cn1c2c([nH]c(=O)c1=O)CCC1=C2C=C(n2ccc(CN3CCN(c4ccc([N+](=O)[O-])cc4)CC3)c2)CC1`, the melting point is more than 300 °C.
Regarding `CC(C)C(=O)c1cn(Cc2c(F)cccc2F)c2sc(-c3ccccc3)c(CBr)c2c1=O`, the melting point was 189 to 192 °C.
For `Cn1c2c(c3ccccc31)C(=O)C(=Cc1c[nH]cn1)CC2` the value was 225 to 232 °C; for `COc1cc(OC)nc(Cc2cccnc2NC(=O)OC(C)(C)C)n1`, 89 to 92 °C.
For `OC(c1cccc(F)c1)(c1cccc(F)c1)C1CCNCC1` the value was 117 to 118 °C; for `CCN1CCC(CCC2CCN(c3ncnc4cc(OC)c(OC)cc34)CC2)S1(=O)=O` (stereo not drawn), 130 °C; for `CC(=O)SCC(C(=O)N1CC2(C[C@H]1C(=O)O)C(=O)CCC2=O)C(F)(F)F` (stereo partly drawn), 153 to 155 °C.
For `Cc1cc(C(=O)NC(=O)NC2CCCCC2)no1` the value was 180 °C; for `CCOC(=O)NC1N=C(c2ccc(Cl)cc2)c2oc3ccccc3c2NC1=O` (stereo not drawn), more than 260 °C.
As for `CC(=O)OCC(=O)NNC(=O)c1ccc2occ(-c3cccc(OC(F)(F)F)c3)c2c1`, the melting point fell in the range of 161 to 162 °C.
In the case of `O=Cc1cccc2cc(C(=O)OCc3ccccc3)[nH]c12`, the melting point turned out to be 62 °C.
Next, `CCCC(=O)Nc1cc(CNc2ccccc2C(=O)Nc2cc3ccccc3cn2)ccn1`: 173 °C.
With `CC(C)C(C)(C)C(O)(COc1ccc(Cl)cc1)Cn1cncn1` (stereo not drawn), the melting point lay in the range of 59 to 60 °C.
As to `O=C1NC(=O)C(N(Cc2ccc(Br)cc2)c2ccc(CCNCC(O)COc3ccccc3)cc2)S1` (stereo not drawn), the melting point was 52 to 54 °C.
Turning to `N#CCCCN1CCOC(c2ccccc2)(c2ccccc2)CC1`, the melting point was in the range of 89 to 90 °C.
Next, `CC1(C)CC(=O)C2=C(C1)NC1=C(C(=O)CC(C)(C)C1)C2c1cccc(Oc2ccc(Cl)cc2)c1`: 238 to 239 °C.
Next, `Cc1ccc(-c2cc(C)c3c(c2)C(C)CC(=O)N3)c(C)n1` (stereo not drawn): 146 to 148 °C; `CN(Cc1ccc(NC(=O)C2=Cc3cc(-c4cc5ccccc5o4)ccc3S(=O)(=O)CC2)cc1)C1CCOCC1`: 234 to 235 °C; `[N-]=[N+]=NC[C@H]1OC(O)[C@H](O)[C@@H](O)[C@@H]1O` (stereo partly drawn): 128 to 130 °C.
For `c1ccc(-n2c3ccccc3c3c2ccc2c4ccccc4n(-c4ccccc4)c23)cc1` the value was 166 °C; for `O=C(NCCCCCCCCNC(=O)c1ccc(OC(F)(F)F)cc1)c1ccc(OC(F)(F)F)cc1`, 164 to 165 °C.
For `CCOC(=O)c1cnc2c(C)cc(-c3ccc(Cl)cc3)cn12`, the melting point is 147 °C.
For `CCN1C(=O)C(Cl)(Cl)c2cc3sccc3cc21` the value was 143 to 144 °C; for `CC(=O)OC[C@](O)(CO)c1ccc(F)cc1F`, 52 to 53 °C; for `Cc1ccc(-c2c3c(cc4ccc5c(c24)OCO5)C(=O)NC3=O)cc1`, 297 to 299 °C.
Next, `Clc1ccn2ncc(Br)c2n1`: 173 to 174 °C.
Next, `CC1(C)Oc2cc([N+](=O)[O-])ccc2[C@@H](N2Cc3ccccc3C2=O)[C@@H]1O` (relative stereo): 249 to 250 °C.
With `CC(C)(C)C(=O)Nc1nc(CC(=O)Nc2cccc(C(F)(F)F)c2)cs1`, the melting point fell in the range of 147 to 152 °C.
For `CC(=O)n1cc(C2=CCN(C)CC2)c2cc(F)ccc21` the value was 126 to 128 °C.
For `Cn1ncc(C(=O)N2CCS(=O)(=O)CC2)c1C(=O)Nc1ccn2nc(-c3ccccc3)nc2c1` the value was more than 250 °C; for `CN(C)c1nccc2c1nnn2Cc1ccccc1F`, 248 to 252 °C; for `Cc1cc(N(C)C)ccc1C=Nc1cc(Cl)c(N=CN(C)C)c(Cl)c1`, 64 to 65 °C.
Regarding `COC(=O)CCCc1cc2nc(Cl)ccc2n1S(=O)(=O)c1ccc(Cl)cc1`, the melting point came to 108 °C.
Turning to `Cc1cc(C#N)ccc1-c1ccc(-c2nc3cc(C#N)ccc3[nH]2)cc1`, the melting point was 269 to 270 °C.
Next, `O=C(O)CCCCCc1cccnc1`: 100 to 105 °C.
`O=c1[nH]c(=O)c2c3c(cc([N+](=O)[O-])c2[nH]1)OCO3`: the melting point stood at 285 °C.
For `Cn1nccc1C(=O)Nc1cc(Oc2ccc3nc(NC(=O)C4CC4)cn3n2)ccc1F` the value was 253 °C; for `CC(OCc1ccc(Cl)c2ccccc12)(C(=O)O)C(F)(F)F` (stereo not drawn), 120 to 121 °C; for `COc1cc(OC)nc(C(C)c2ccccc2NC(=O)OC(C)(C)C)n1` (stereo not drawn), 119 to 121 °C.
`CC(=NNC(=O)c1ccc2n1Cc1ccccc1N(C(=O)c1ccc(C3CCCCC3)cc1)C2)N(C)C` came in with a melting point of 164 to 175 °C.
For `CC(C)(S)CN1CCN(CCOCCO)CC1` the value was 38 °C; for `CCOC(=O)C(Cc1c(Cl)cc(OC)cc1Cl)(NC(C)=O)C(=O)OCC`, 154 to 156 °C.
Next, `CCOC(=O)c1ncn2c1CN=C(c1ccccc1F)c1cc(Cl)ccc1-2`: 195 to 196 °C.
For `COc1ccc(-c2cccc(C3SC(N4CCOCC4)=NC3=O)n2)cc1-c1ccccc1` (stereo not drawn) the value was 214 to 217 °C; for `CNC(=O)[C@@H](N[C@@H](C)c1ccccc1)C(C)(C)C`, 107 to 108 °C.
`CCOc1ccc(Nc2nc(Nc3ccc4c(c3)OCCO4)ncc2F)cc1` returned a melting point of 164 to 167 °C.
`CCn1c(C)nc2cc(Sc3cccc4cnccc34)c([N+](=O)[O-])cc21` showed a melting point of 236 to 242 °C.
The compound `Oc1cc(-c2ccc(Cl)cc2)nc2ccnn12` came in with a melting point of 306 to 308 °C.
Next, `CCc1nn2c(N3CCN(C)CC3)cc(OCCO)nc2c1S(=O)(=O)c1ccccc1`: 153 to 154 °C; `CN(N)c1nc(-c2ccccc2)c2cc(Cl)ccc2n1`: 156 °C; `N#Cc1ccc(C=Nc2c3c(nc4ccccc24)CCCC3)cc1`: 204 to 205 °C.
Next, `CCOC(=O)CC1CCc2c(sc3c(Cl)cccc23)C1` (stereo not drawn): 51 to 53 °C; `Nc1ccc(-c2cnn3c(O)ncnc23)cc1`: more than 300 °C.
As for `COC(=O)c1cc2c(nc1C)C(=O)CCC2`, the melting point was 180 to 181 °C.
For `CCOC(=O)c1c(N)sc(N=Cc2cccs2)c1C(=O)OCC` the value was 114 to 116 °C.
The compound `NCc1cn(CCC(=O)O)c(=S)n1[C@H]1CCc2c(F)cc(F)cc2C1` displayed a melting point of 191 °C.
Next, `Cc1ccn2c(C)c(-c3ccc4c(c3)NC(=O)C(C)O4)nc2c1` (stereo not drawn): 254 to 256 °C.
On to `Nc1ccc(OCC2COCCO2)cc1` (stereo not drawn), for which the melting point was 86 to 87 °C.
Next, `COC(=O)c1ccc(-c2ccc3cc(OCCCCC=C=O)c(C45CC6CC(CC(C6)C4)C5)cc3c2)cc1`: 209 to 210 °C.
With `COc1cc2ncnc(Nc3ccc4[nH]ccc4c3)c2cc1I`, the melting point lay in the range of 260 to 267 °C.
For `ClC(Cl)(Cl)c1nc2ncccc2[nH]1` the value was 210 °C; for `Cc1ccc(C2(O)CCCCC2C(c2ccccc2)N(C)C)cc1` (stereo not drawn), 168 to 169 °C.
